Results published in US6291231A, “Microorganism producing terphenyl compounds” (Shionogi & Co., Ltd., priority 1996, dated 2001).
In brackets after ≈: the same amount, converted by molar mass.

Legend:
BDF1 mouse splenocytes [1] = test: Suppression of the concanavalin A (Con A) mitogen reaction of mouse splenocytes, 3H-thymidine uptake; assay type: cell-based; details: for Radioactivity cpm ± SD / inhibition at 0.00025 µg/mL / inhibition at 0.00098 µg/mL / inhibition at 0.00391 µg/mL / inhibition at 0.0156 µg/mL / inhibition at 0.0625 µg/mL: Con A 5 μg/ml, 48 h; for Radioactivity cpm ± SD: 3H-thymidine; for inhibition at 0.00025 µg/mL / inhibition at 0.00098 µg/mL / inhibition at 0.00391 µg/mL / inhibition at 0.0156 µg/mL / inhibition at 0.0625 µg/mL: Mus musculus; for inhibition at 0.00025 µg/mL / inhibition at 0.00098 µg/mL / inhibition at 0.00391 µg/mL / inhibition at 0.0156 µg/mL / inhibition at 0.0625 µg/mL / IC50: Splenocyte; for IC50: Con A reaction of mouse splenocytes; for Suppression of the Con A reaction of mouse splenocytes (in words): depending on the compound concentration
Protocol: (§1) To each well of a 96 well microtiter plate were added 5×10^5 BDF1 mouse splenocytes suspended in 0.1 ml of 10% fetal calf serum-fortifed RPMI 1640 medium (2 mM of sodium bicarbonate, 50 units/ml of penicillin, 50 μg/ml of streptomycin and 5×10^-5 M of 2-mercaptethanol were added) were added. To each well, 5 μg/ml of Con A as a mitogen and the compound (I-1), (I-2) or (I-3) of a pre-determined concentration were added so that a final volume of each well reached 0.2 ml. Each compound of the present invention was dissolved in dimethylsulfoxide (DMSO) and diluted with the above RPMI 1640 medium to adjust the final concentration to 100 ng/ml or less. The splenocytes in the 96 well microtiter plate were cultivated at 37° C. for 48 hours in an incubator keeping the humidity 100%, carbon dioxide 5% and air 95%. The cells were pulse-labeledwith 3H-thymidine (18.5 Kbq/well) before 6 hours of harvest. After the cultivation, the cells were collected by a cell harvester and radioactivity taken in the cells was measured for being used as an indicator of a cell proliferation activity. Con A-free (--Con A) medium was used as a control.

BDF1 mouse splenocytes [2] = test: Suppression of the lipopolysaccharide (LPS) reaction of mouse splenocytes, 3H-thymidine uptake; assay type: cell-based; details: for Radioactivity cpm ± SD / inhibition at 0.00098 µg/mL / inhibition at 0.00391 µg/mL / inhibition at 0.0156 µg/mL / inhibition at 0.0625 µg/mL / inhibition at 0.25 µg/mL: LPS 10 μg/ml; for Radioactivity cpm ± SD: 3H-thymidine; for inhibition at 0.00098 µg/mL / inhibition at 0.00391 µg/mL / inhibition at 0.0156 µg/mL / inhibition at 0.0625 µg/mL / inhibition at 0.25 µg/mL: Mus musculus, 48 h; for inhibition at 0.00098 µg/mL / inhibition at 0.00391 µg/mL / inhibition at 0.0156 µg/mL / inhibition at 0.0625 µg/mL / inhibition at 0.25 µg/mL / IC50: Splenocyte; for IC50: LPS reaction of mouse splenocytes; for Suppressive effect on the LPS reaction of mouse splenocytes (in words): depends on the compound concentration
Protocol: as §1, with “Each compound of the present invention was dissolved in dimethylsulfoxide (DMSO) and diluted with the above RPMI 1640 medium to adjust the final concentration to 100 ng/ml or less.” left out
By the same method as described in above 1-1 except that lipopolysaccharide (LPS, 10 μg/ml) was used in spite of concanavalin A, a suppression of the reaction was examined. LPS-free (--LPS) medium was used as a control.

[3] = Solubility (characterisation data); assay type: physicochemical
BDF1 mouse splenocytes [4] = test: Suppression of the concanavalin A (Con A) mitogen reaction of mouse splenocytes, 3H-thymidine uptake; assay type: cell-based; parameters: Radioactivity cpm ± SD: dose or concentration left out as unconfirmed; details: for inhibition at 0.25 µg/mL: Mus musculus, Splenocyte, 48 h, Con A 5 μg/ml, compound 250.0 ng/ml

Compound | Radioactivity cpm ± SD (BDF1 mouse splenocytes [1]; compound 0.25 ng/ml) | Radioactivity cpm ± SD (BDF1 mouse splenocytes [1]; compound 0.98 ng/ml) | Radioactivity cpm ± SD (BDF1 mouse splenocytes [1]; compound 3.91 ng/ml) | Radioactivity cpm ± SD (BDF1 mouse splenocytes [1]; compound 15.6 ng/ml) | Radioactivity cpm ± SD (BDF1 mouse splenocytes [1]; compound 62.5 ng/ml) | inhibition at 0.00025 µg/mL (BDF1 mouse splenocytes [1]; compound 0.25 ng/ml) | inhibition at 0.00098 µg/mL (BDF1 mouse splenocytes [1]; compound 0.98 ng/ml) | inhibition at 0.00391 µg/mL (BDF1 mouse splenocytes [1]; compound 3.91 ng/ml) | inhibition at 0.0156 µg/mL (BDF1 mouse splenocytes [1]; compound 15.6 ng/ml) | inhibition at 0.0625 µg/mL (BDF1 mouse splenocytes [1]; compound 62.5 ng/ml) | IC50 (BDF1 mouse splenocytes [1]) | Suppression of the Con A reaction of mouse splenocytes (in words) (BDF1 mouse splenocytes [1]) | Radioactivity cpm ± SD (BDF1 mouse splenocytes [2]; compound 0.98 ng/ml) | Radioactivity cpm ± SD (BDF1 mouse splenocytes [2]; compound 3.91 ng/ml) | Radioactivity cpm ± SD (BDF1 mouse splenocytes [2]; compound 15.6 ng/ml) | Radioactivity cpm ± SD (BDF1 mouse splenocytes [2]; compound 62.5 ng/ml) | Radioactivity cpm ± SD (BDF1 mouse splenocytes [2]; compound 250.0 ng/ml) | inhibition at 0.00098 µg/mL (BDF1 mouse splenocytes [2]; compound 0.98 ng/ml) | inhibition at 0.00391 µg/mL (BDF1 mouse splenocytes [2]; compound 3.91 ng/ml) | inhibition at 0.0156 µg/mL (BDF1 mouse splenocytes [2]; compound 15.6 ng/ml) | further results
COc1cc(-c2ccccc2)c(OC)c(O)c1-c1ccc(OCC=C(C)C)c(O)c1 [Compound I-2, 3',6'-dimethoxy-4-(3-methyl-2-butenyloxy)-[1,1';4',1"] terphenyl-3,2'-diol] | 281904 ± 6522 cpm | 281371 ± 10119 cpm | 191575 ± 6969 cpm | 41660 ± 531 cpm | 11793 ± 235 cpm | -1.8% | -1.6% | 30.9% | 86% | 96.9% | 5.6 ng/mL (≈ 0.0138 µM) | significantly suppressed | 208023 ± 8941 cpm | 132834 ± 5106 cpm | 78686 ± 4135 cpm | 39824 ± 651 cpm | 22312 ± 1122 cpm | -35.9% | 13.9% | 49.8% | inhibition at 0.0625 µg/mL (BDF1 mouse splenocytes [2]; compound 62.5 ng/ml): 75.6%; inhibition at 0.25 µg/mL (BDF1 mouse splenocytes [2]; compound 250.0 ng/ml): 87.2%; IC50 (BDF1 mouse splenocytes [2]): 15.6 ng/mL (≈ 0.0384 µM); Suppressive effect on the LPS reaction of mouse splenocytes (in words) (BDF1 mouse splenocytes [2]): potent suppressive effect; Solubility in acetone, ethyl acetate and chloroform [3]: soluble; Solubility in water [3]: insoluble; Radioactivity cpm ± SD (BDF1 mouse splenocytes [4]): 8233 ± 254 cpm; inhibition at 0.25 µg/mL (BDF1 mouse splenocytes [4]): 98.2%
COc1cc(-c2c(OC)cc(-c3ccc(O)cc3)c(OC)c2O)ccc1OCC=C(C)C [Compound I-3, 3,3',6'-trimethoxy-4-(3-methyl-2-butenyloxy)-[1,1';4',1"] terphenyl-2',4"-diol] | 285408 ± 7252 cpm | 266173 ± 6208 cpm | 101504 ± 1326 cpm | 20510 ± 287 cpm | 7755 ± 624 cpm | -3.1% | 4% | 64.2% | 93.8% | 98.4% | 2 ng/mL (≈ 0.00458 µM) | significantly suppressed | 184366 ± 10625 cpm | 128436 ± 4167 cpm | 46765 ± 2209 cpm | 22961 ± 1187 cpm | 14962 ± 866 cpm | -20.2% | 16.8% | 71% | inhibition at 0.0625 µg/mL (BDF1 mouse splenocytes [2]; compound 62.5 ng/ml): 86.7%; inhibition at 0.25 µg/mL (BDF1 mouse splenocytes [2]; compound 250.0 ng/ml): 92%; IC50 (BDF1 mouse splenocytes [2]): 8 ng/mL (≈ 0.0183 µM); Suppressive effect on the LPS reaction of mouse splenocytes (in words) (BDF1 mouse splenocytes [2]): potent suppressive effect; Solubility in acetone, ethyl acetate and chloroform [3]: soluble; Solubility in water [3]: insoluble; Radioactivity cpm ± SD (BDF1 mouse splenocytes [4]): 7522 ± 485 cpm; inhibition at 0.25 µg/mL (BDF1 mouse splenocytes [4]): 98.5%
